“And” between values parts separate entries of the source, which are not always exact repeats. Equal entries are not always repeated. Marks after values point to notes of the source that are not given here.
Experiments:
mouse melanoma B16F10 = experiment: In vivo antitumor effect, subcutaneous transplanted tumor model of mouse melanoma B16F10; settings: for TGI %: B16F10, TGI=(1-T/C)×100 by tumor weight
Description: The in vivo antitumor effects of the compound of Example 1 and the compound of Example 2 as PD-L1 inhibitors on mouse melanoma B16F10 were evaluated on the subcutaneous transplanted tumor model of mice.
(§1) Experimental steps: the subcultured B16F10 tumor strain was ground with a homogenizer, washed twice with sterile normal saline and counted, and the cell concentration of tumor cell suspension was adjusted with normal saline to 9×10^6/ml. 0.2 ml of the cell suspension was inoculated into the right armpit of C57BL/6J mice and the day was recorded as day 0. The next day after inoculation, the animals were randomly divided into groups, weighed and administered. The mice in the solvent control group were administrated with 0.5% CMC orally every day. […] The compounds to be tested were administered orally once a day. The animals were weighed and killed during treatment. The tumor tissues were stripped, weighed and photographed. Finally, the tumor inhibition rates were calculated to evaluate the intensity of antitumor effect.
(§2) Calculation and statistical method: tumor proliferation inhibition rate TGI (%): TGI=(1-T/C)×100. (T: tumor weight in the treatment group; C: tumor weight in the negative control group). Statistical method: Graphpad was used for data statistical analysis, and One-way ANOVA test was used, * P<0.05, * * P<0.01, * * * P<0.001.

mouse colon cancer MC38 = experiment: In vivo antitumor effect, subcutaneous transplanted tumor model of mouse colon cancer MC38; settings: for Body weight (g) X ± SD, End / Body weight (g) X ± SD, Start / Tumor weight (g) X ± SD: MC38, C57BL/6J mice; for TGI %: MC38, TGI=(1-T/C)×100 by tumor weight
Description: The in vivo antitumor effects of the compound of Example 1 and the compound of Example 2 as PD-L1 inhibitors on mouse colon cancer MC38 were evaluated on the subcutaneous transplanted tumor model of mice.
as §1, with “MC38” for “B16F10”, “9×10^6/ml,” for “9×10^6/ml.”
as §2, with “group:” for “group;”

[1] = system: human lung cancer NCI-H460; experiment: In vivo antitumor effect, human lung cancer NCI-H460 model in NSG mice reconstructed by human immune system; settings: for Tumor volume X ± SD, Day 1 / Tumor volume X ± SD, Day 20 / Tumor weight (g) X ± SD: NCI-H460, NSG mice with human PBMCs; for TGI %: NCI-H460, TGI=(1-T/C)×100 by tumor weight
Description: The in vivo antitumor effects of the compound of Example 1 and the compound of Example 2 as PD-L1 inhibitors were evaluated on the NCI-H460 model of human lung cancer in NSG tumor-bearing mice reconstructed by human immune system. […]
Experimental steps: PBMCs were obtained by isolation of fresh human leukocytes, then inoculated into NSG mice through caudal vein, and each mouse was inoculated with 1×10^7. On the third day. NCI-H460 tumor cells were inoculated into the armpit of mice, and each mouse was inoculated with 1×10^6. After the tumors grew to 100˜300 mm^3, the mice were administered in groups. The mice in the solvent control group were administrated with 0.5% CMC orally every day. […] The compounds to be tested were administered orally once a day. The animals were weighed and killed during treatment. The tumor tissues were stripped, weighed and photographed. Finally, the tumor inhibition rates were calculated to evaluate the intensity of antitumor effect.
as §2, with “group:” for “group;”

[2] = log P (physical and chemical properties); format: physicochemical
[3] = Influencing factor test (stability at high temperature, high humidity, illumination); format: physicochemical
Description: When the temperature rose to the top of DSC endothermic peak (about 175° C.), the weight loss was obvious, which was the weight loss caused by the melting decomposition of the sample. The DSC endothermic peak was the decomposition point of the compound of Example 2. 4.
• (1) Physical and chemical properties • Appearance: white solid • Melting point: 174.68° C.
The compound of Example 2 was stable under the conditions of illumination, high temperature and high humidity.

[4] = system: pleural mesothelioma (PM); settings: 25 patients with pleural mesothelioma (PM); cited from earlier work
[5] = 80 × 1 mg/kg, intraperitoneal, B16F10, C57BL/6J mice, 1 mg/kg
[6] = 5 × 14 mg/kg, oral once a day, B16F10, C57BL/6J mice
[7] = 10 × 14 mg/kg, oral once a day, B16F10, C57BL/6J mice
[8] = 2.5 × 14 mg/kg, oral once a day

For `O=P1(N(CCCl)CCCl)NCCCO1` (stereo not drawn) [CTX, cyclophosphamide], the “Body weight (g) X ± SD, End” value (mouse melanoma B16F10; [5]) was 19.2 ± 0.8 g and 17.5 ± 0.9 g, the “Body weight (g) X ± SD, Start” value (mouse melanoma B16F10; [5]) was 16.94 ± 0.43 g and 16.9 ± 0.8 g and the TGI % (mouse melanoma B16F10; 80 × 1 mg/kg, intraperitoneal, 1 mg/kg) was 90% and 70%. For the same molecule, the “Body weight (g) X ± SD, End” value (mouse colon cancer MC38; 40 × 1 mg/kg, intraperitoneal) was 21.7 ± 1.4 g, the “Body weight (g) X ± SD, Start” value (mouse colon cancer MC38; 40 × 1 mg/kg, intraperitoneal) was 18.8 ± 0.9 g and the “Tumor weight (g) X ± SD” value (mouse colon cancer MC38; 40 × 1 mg/kg, intraperitoneal) was 1.30 ± 1.44** g. For the same molecule, the TGI % (mouse colon cancer MC38; 40 × 1 mg/kg, intraperitoneal) was 67%, the “Body weight (g) X ± SD, End” value (mouse colon cancer MC38; 40 × 2 mg/kg, intraperitoneal) was 24.5 ± 0.9 g and the “Body weight (g) X ± SD, Start” value (mouse colon cancer MC38; 40 × 2 mg/kg, intraperitoneal) was 22.0 ± 0.8 g. For the same molecule, the “Tumor weight (g) X ± SD” value (mouse colon cancer MC38; 40 × 2 mg/kg, intraperitoneal) was 0.17 ± 0.10** g, the TGI % (mouse colon cancer MC38; 40 × 2 mg/kg, intraperitoneal) was 90% and the “Tumor volume X ± SD, Day 1” value ([1]; 100 × 1 mg/kg, intraperitoneal) was 165.4 ± 22.4. The “Tumor volume X ± SD, Day 20” value ([1]; 100 × 1 mg/kg, intraperitoneal) was 556.5 ± 81.1, the “Tumor weight (g) X ± SD” value ([1]; 100 × 1 mg/kg, intraperitoneal) was 0.90 ± 0.15*** g and the TGI % ([1]; 100 × 1 mg/kg, intraperitoneal) was 66.9%.

For `CC(C)OC(=O)[C@H](CO)NCc1cc(Cl)c(OCc2cccc(-c3ccccc3)c2Br)cc1OCc1cccnc1.Cl.Cl` [Example 1, isopropyl (S)-N-[2-(pyridine-3-yl-methoxy)-4-(2-bromo-3-(phenyl)benzyloxy)-5-chlorobenzyl] serinate hydrochloride], the logP [2] was 2.4, the “Tumor weight (g) X ± SD” value (mouse melanoma B16F10; [6]) was 3.11 ± 0.98* g and the TGI % (mouse melanoma B16F10; 5 × 14 mg/kg, oral once a day) was 11%. The “Tumor weight (g) X ± SD” value (mouse melanoma B16F10; [7]) was 3.04 ± 0.94** g, the TGI % (mouse melanoma B16F10; 10 × 14 mg/kg, oral once a day) was 13% and the Appearance ([3]; 60° C., 5 days) was “off white powder”. For the same molecule, the “Melting point (DSC method, ° C.)” value ([3]; 60° C., 5 days) was 118.69 °C, the “Purity (%)” value ([3]; 60° C., 5 days) was 99.5% and the “Related substances (%)” value ([3]; 60° C., 5 days) was 0.5%. The Appearance ([3]; Illumination, 5 days) was “transparent bulk”, the “Purity (%)” value ([3]; Illumination, 5 days) was 96.0% and the “Related substances (%)” value ([3]; Illumination, 5 days) was 4.0%. For the same molecule, the “Stability under illumination conditions” value ([3]; Illumination, 5 days) was “unstable”, the Appearance ([3]; Initial) was “off white powder” and the “Melting point (DSC method, ° C.)” value ([3]; Initial) was 119.36 °C. The “Purity (%)” value ([3]; Initial) was 99.5%, the “Related substances (%)” value ([3]; Initial) was 0.5% and the “Purity (%)” value ([3]; RH 92.5%, 5 days) was 99.5%. The Appearance ([3]; RH 92.5%, 5 days, hydrochloride) was “colorless viscous liquid”, the Moisture absorption ([3]; high humidity of RH92.5%, 5 days) was “serious moisture absorption” and the “Stability under high temperature conditions” value ([3]; high temperature of 60° C., 5 days) was “stable”. The “Tumor weight (g) X ± SD” value (mouse colon cancer MC38; 5 × 14 mg/kg, oral once a day) was 3.21 ± 0.28*** g, the TGI % (mouse colon cancer MC38; 5 × 14 mg/kg, oral once a day) was 18% and the “Tumor weight (g) X ± SD” value (mouse colon cancer MC38; 10 × 14 mg/kg, oral once a day) was 2.86 ± 1.36** g. For the same molecule, the TGI % (mouse colon cancer MC38; 10 × 14 mg/kg, oral once a day) was 27%, the “Tumor volume X ± SD, Day 1” value ([1]; 15 × 14 mg/kg, oral once a day) was 161.9 ± 21.0 and the “Tumor volume X ± SD, Day 20” value ([1]; 15 × 14 mg/kg, oral once a day) was 1441.4 ± 337.6. The “Tumor weight (g) X ± SD” value ([1]; 15 × 14 mg/kg, oral once a day) was 2.06 ± 0.22 g and the TGI % ([1]; 15 × 14 mg/kg, oral once a day) was 24.7%.

With `CC(C)OC(=O)[C@H](CO)NCc1cc(Cl)c(OCc2cccc(-c3ccccc3)c2Br)cc1OCc1cccnc1.O=C(O)/C=C\C(=O)O` [Example 2, isopropyl (S)-N-(2-(pyridine-3-yl-methoxy)-4-(2-bromo-3-phenylbenzyloxy)-5-chlorobenzyl) serinate maleate] the “log P” value [2] was 3.2, the “Tumor weight (g) X ± SD” value (mouse melanoma B16F10; [6]) was 1.39 ± 0.84* g and the TGI % (mouse melanoma B16F10; 5 × 14 mg/kg, oral once a day) was 40%. The “Tumor weight (g) X ± SD” value (mouse melanoma B16F10; [7]) was 1.04 ± 0.66** g, the TGI % (mouse melanoma B16F10; 10 × 14 mg/kg, oral once a day) was 55% and the “Comparison of tumor inhibition rate at the same dosage” value (“Comparison of tumor inhibition rate” below) (mouse melanoma B16F10; Tumor model B16F10) was “Compound of the Example 2 (maleate) > Compound”. The Appearance ([3]; 60° C., 10 days) was “white”, the “Chiral impurities (%)” value ([3]; 60° C., 10 days) was 0.2% and the “Melting point (DSC method, ° C.)” value ([3]; 60° C., 10 days) was 174.64 °C. The “Purity (%)” value ([3]; 60° C., 10 days) was 98.7%, the “Related substances (%)” value ([3]; 60° C., 10 days) was 1.3% and the Appearance ([3]; Illumination, 10 days) was “white”. For the same molecule, the “Chiral impurities (%)” value ([3]; Illumination, 10 days) was 0.2%, the “Melting point (DSC method, ° C.)” value ([3]; Illumination, 10 days) was 174.60 °C and the “Purity (%)” value ([3]; Illumination, 10 days) was 98.6%. The “Related substances (%)” value ([3]; Illumination, 10 days) was 1.4%, the Appearance ([3]; Initial) was “white” and the “Chiral impurities (%)” value ([3]; Initial) was 0.2%. For the same molecule, the “Melting point (DSC method, ° C.)” value ([3]; Initial) was 174.68 °C, the “Purity (%)” value ([3]; Initial) was 98.7% and the “Related substances (%)” value ([3]; Initial) was 1.3%. For the same molecule, the Appearance ([3]; RH 92.5%, 10 days) was “white”, the “Chiral impurities (%)” value ([3]; RH 92.5%, 10 days) was 0.2% and the “Melting point (DSC method, ° C.)” value ([3]; RH 92.5%, 10 days) was 174.57 °C. For the same molecule, the “Purity (%)” value ([3]; RH 92.5%, 10 days) was 98.7%, the “Related substances (%)” value ([3]; RH 92.5%, 10 days) was 1.3% and the “Stability under illumination, high temperature and high humidity” value ([3]; illumination, 60° C., RH 92.5%, 10 days) was “stable”. For the same molecule, the “Tumor weight (g) X ± SD” value (mouse colon cancer MC38; [8]) was 1.13 ± 0.78 g, the TGI % (mouse colon cancer MC38; [8]) was 34% and the “Tumor weight (g) X ± SD” value (mouse colon cancer MC38; 5 × 14 mg/kg, oral once a day) was 0.42 ± 0.39*** g. The TGI % (mouse colon cancer MC38; 5 × 14 mg/kg, oral once a day) was 75%, the “Tumor weight (g) X ± SD” value (mouse colon cancer MC38; 10 × 14 mg/kg, oral once a day) was 0.73 ± 0.54** g and the TGI % (mouse colon cancer MC38; 10 × 14 mg/kg, oral once a day) was 57%. The “Comparison of tumor inhibition rate” value (mouse colon cancer MC38; Tumor model MC38) was “Compound of the Example 2 (maleate) > Compound”, the “Tumor volume X ± SD, Day 1” value ([1]; 15 × 14 mg/kg, oral once a day) was 166.5 ± 24.5 and the “Tumor volume X ± SD, Day 20” value ([1]; 15 × 14 mg/kg, oral once a day) was 1405.2 ± 442.9. The TGI % ([1]; 15 × 14 mg/kg, oral once a day) was 30.6% and the “Comparison of tumor inhibition rate” value ([1]; Tumor model NSG NCI-H460) was “Compound of the Example 2 (maleate) > Compound”.

In the case of “Keytruda: first FDA approved PD-1 monoclonal antibody, from Merck”, the disease control rate [4] is given as 76% and the “overall response rate (ORR)” value [4] is given as 28%.
